Measured values taken from patent publication EP0369881A1, “Compounds derived from the 3-keto-delta 4,9-19-nor steroid structure, and their use as medicaments” (ROUSSEL-UCLAF, priority 1988, dated 1990).

Legend:
[1] = biological target: T1, Récepteur glucocorticoïde du thymus de rat (Rattus norvegicus, UniProt P06536); assay: Relative binding affinity, competition with tritiated dexamethasone, rat thymus cytosol; details: reference hormone dexaméthasone
T1 construct: les thymus sont prélevés et homogénéisés à 0°C; from tissue; host or cells: thymus cytosol (105 000 g supernatant) of adrenalectomised male Sprague Dawley rats
T1 sequence (P06536 1-795): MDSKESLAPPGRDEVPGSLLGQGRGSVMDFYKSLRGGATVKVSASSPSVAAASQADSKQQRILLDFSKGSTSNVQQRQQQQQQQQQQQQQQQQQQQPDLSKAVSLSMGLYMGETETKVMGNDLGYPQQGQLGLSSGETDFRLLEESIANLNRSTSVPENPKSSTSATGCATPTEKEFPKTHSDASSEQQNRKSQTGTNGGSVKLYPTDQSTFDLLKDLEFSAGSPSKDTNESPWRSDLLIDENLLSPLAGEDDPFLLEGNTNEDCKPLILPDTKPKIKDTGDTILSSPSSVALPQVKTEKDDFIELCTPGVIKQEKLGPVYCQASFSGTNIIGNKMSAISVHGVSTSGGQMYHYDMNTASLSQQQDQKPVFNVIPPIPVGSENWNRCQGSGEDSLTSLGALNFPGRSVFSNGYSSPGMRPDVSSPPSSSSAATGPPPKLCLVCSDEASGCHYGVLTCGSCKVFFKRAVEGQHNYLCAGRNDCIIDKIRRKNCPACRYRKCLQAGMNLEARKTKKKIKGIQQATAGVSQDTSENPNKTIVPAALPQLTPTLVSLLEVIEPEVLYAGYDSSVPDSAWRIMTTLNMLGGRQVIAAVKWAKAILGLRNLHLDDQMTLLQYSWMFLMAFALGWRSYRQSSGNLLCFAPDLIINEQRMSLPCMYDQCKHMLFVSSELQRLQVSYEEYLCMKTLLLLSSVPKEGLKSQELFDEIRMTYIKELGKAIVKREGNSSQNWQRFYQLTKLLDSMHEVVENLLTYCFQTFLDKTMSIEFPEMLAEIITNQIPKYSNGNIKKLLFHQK
Experimental: Récepteur glucocorticoïde du thymus de rat :
Des rats mâles Sprague Dawley EOPS de 160 à 200 g sont surrénalectomisés. 4 à 8 jours après cette ablation, les animaux sont sacrifiés, et les thymus sont prélevés et homogénéisés à 0°C dans un tampon Tris 10mM, saccharose 0,25M, dithiothreitol 2mM, HCl pH 7,4, à l'aide d'un Potter polyté-trafluoroéthylène-verre (1 g de tissu pour 10 ml de TS). L'homogénat est ensuite ultracentrifugé (105 000 g x 90 mn) à 0°C. Des aliquotes du surnageant ainsi obtenu, sont incubées à 0°C pendant un temps (t) avec une concentration constante (T) de dexaméthasone tritiée en présence de concentrations croissantes (O - 2 500.10⁻⁹M) soit de dexaméthasone froide, soit du produit froid à tester. La concentration de la dexaméthasone tritiée liée (B) est ensuite mesurée dans chaque incubat par la technique d'adsorption au charbon dextran.
(§1) Calcul de l'affinité relative de liaison:
(§2) Le calcul de l'affinité relative de liaison (ARL) est identique pour tous les récepteurs.
(§3) On trace les 2 courbes suivantes : le pourcentage de l'hormone tritiée liée (B)/(T) [formula] en fonction du logarithme de la concentration de l'hormone de référence froide et (B)/(T) [formula] en en fonction du logarithme de la concentration du produit froid testé.
(§4) On détermine la droite d'équation I₅₀ = ( (B)/(T) [formula] max + (B)/(T) [formula] min)/2. (B)/(T) [formula] max = Pourcentage de l'hormone tritiée liée pour une incubation de cette hormone tritiée à la concentration (T). (B)/(T) [formula] min = Pourcentage de l'hormone tritiée liée pour une incubation de cette hormone tritiée à la concentration (T) en présence d'un grand excès d'hormone froide (2500.10⁻⁹M).
(§5) Les intersections de la droite I₅₀ et des courbes permettent d'évaluer les concentrations de l'hormone de référence froide (CH) et du produit froid testé (CX) qui inhibent de 50% la liaison de l'hormone tritiée sur le récepteur.
(§6) L'affinité relative de liaison (ARL) du produit testé est déterminée par l'équation [formula]

[2] = biological target: T2, Récepteur progestogène de l'utérus de lapine (Oryctolagus cuniculus, UniProt P06186); assay: Relative binding affinity, competition with tritiated Product R, rabbit uterus cytosol; details: reference hormone progestérone
T2 construct: les utérus sont prélevés, pesés et homogénéisés à 0°C; from tissue; host or cells: uterus cytosol (105 000 g supernatant) of estradiol-primed immature female rabbits
T2 sequence (P06186 1-930): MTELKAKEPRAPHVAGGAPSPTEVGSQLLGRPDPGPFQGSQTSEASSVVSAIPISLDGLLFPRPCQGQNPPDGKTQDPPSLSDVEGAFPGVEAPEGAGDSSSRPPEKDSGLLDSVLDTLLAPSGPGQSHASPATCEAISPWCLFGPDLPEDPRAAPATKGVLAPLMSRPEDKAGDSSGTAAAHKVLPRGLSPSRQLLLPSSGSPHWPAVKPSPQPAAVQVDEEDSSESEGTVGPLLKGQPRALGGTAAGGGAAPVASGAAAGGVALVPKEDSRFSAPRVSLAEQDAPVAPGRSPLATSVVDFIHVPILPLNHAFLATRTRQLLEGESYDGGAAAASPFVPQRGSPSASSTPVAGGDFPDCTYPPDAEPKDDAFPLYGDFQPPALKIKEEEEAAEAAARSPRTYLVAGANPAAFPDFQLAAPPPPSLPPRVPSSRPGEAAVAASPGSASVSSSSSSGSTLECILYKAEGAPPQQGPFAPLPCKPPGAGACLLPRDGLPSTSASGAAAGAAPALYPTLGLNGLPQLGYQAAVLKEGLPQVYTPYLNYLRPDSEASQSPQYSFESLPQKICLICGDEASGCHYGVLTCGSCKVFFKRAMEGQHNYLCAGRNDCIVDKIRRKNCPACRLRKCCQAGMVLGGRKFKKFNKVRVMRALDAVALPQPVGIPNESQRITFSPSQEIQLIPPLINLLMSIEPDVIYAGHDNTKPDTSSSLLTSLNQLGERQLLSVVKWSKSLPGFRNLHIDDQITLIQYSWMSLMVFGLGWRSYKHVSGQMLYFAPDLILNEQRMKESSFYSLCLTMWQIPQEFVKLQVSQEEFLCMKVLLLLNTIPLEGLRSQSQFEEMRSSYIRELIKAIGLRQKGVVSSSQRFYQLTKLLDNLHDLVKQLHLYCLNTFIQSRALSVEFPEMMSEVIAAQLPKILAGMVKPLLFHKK
Experimental: Récepteur progestogène de l'utérus de lapine :
Des lapines impubères d'environ 1 kg reçoivent une application cutanée de 25 microgrammes d'estradiol. 5 jours après ce traitement, les animaux sont sacrifiés, les utérus sont prélevés, pesés et homogénéisés à 0°C, à l'aide d'un Potter teflon-verre dans une solution tamponnée TS (Tris 10mM, saccharose 0,25 M, HCl pH 7,4) (1 g de tissu pour 50 ml de TS). L'homogénat est ensuite ultracentrifugé (105 000 g x 90 mn) à 0°C. Des aliquotes du surnageant ainsi obtenu, sont incubées à 0°C pendant un temps t, avec une concentration constante (T) de Produit R tritié (17,21-diméthyl 19-nor 4,9-pregnadiène-3,20-dione) en présence de concentrations croissantes (0 - 2 500. 10⁻⁹M) soit de R froid, soit de progestérone froide, soit du produit froid à tester. La concentration de R tritié lié (B) est ensuite mesurée dans chaque incubat par la technique d'adsorption au charbon dextran.
as §1, §2, §3, §4, §5, §6

| affinité relative de liaison (ARL) Glucocorticoïde ([1]; incubation 1H at 0°C) | affinité relative de liaison (ARL) Glucocorticoïde ([1]; incubation 24H at 0°C) | affinité relative de liaison (ARL) Progestogène ([2]; incubation 2H at 0°C) | affinité relative de liaison (ARL) Progestogène ([2]; incubation 24H at 0°C) | Structure (SMILES) |
| --- | --- | --- | --- | --- |
| 156 | 139 | 70 | 351 | CSc1ccc([C@H]2C[C@@]3(C)[C@@H](CC[C@@]3(O)C#CCCl)[C@@H]3CCC4=CC(=O)CCC4=C32)cc1 [Exemple 4, 17alpha-(3-chloro 1-propynyl) 17béta-hydroxy 11béta-[4-(méthylthio)phényl] estra-4,9-dièn-3-one] |
| 142 | 169 | 55 | 225 | CSc1ccc([C@H]2C[C@@]3(C)[C@@H](CC[C@@]3(O)C#CCF)[C@@H]3CCC4=CC(=O)CCC4=C32)cc1 [Exemple 3, 17alpha-(3-fluoro 1-propynyl) 17béta-hydroxy 11béta-[4-(méthylthio)phényl] estra-4,9-dièn-3-one] |
| 133 | 99 | 72 | 86 | CSc1ccc([C@H]2C[C@@]3(C)[C@@H](CC[C@@]3(O)C#CCO)[C@@H]3CCC4=CC(=O)CCC4=C32)cc1 [Exemple 1, 17béta-hydroxy 17alpha-(3-hydroxy 1-propynyl) 11béta-[4-(méthylthio)phényl] estra-4,9-dien-3-one] |
